According to patent publication US9815796B2 (Merck Sharp & Dohme Corp., priority 2013, dated 2017):
Like-named read-outs stand apart in the source and are kept apart here.

Tests used:
[1] = reported in Brandon et al., Annual Reports in Medicinal Chemistry 42: 4-5, 2007; cited from earlier work
other PDE isoforms = conditions: reported in Brandon et al., Annual Reports in Medicinal Chemistry 42: 4-5, 2007; cited from earlier work
Rhesus PDE2A3 = Rhesus PDE2A3 (Macaca mulatta, UniProt B3VTJ2); assay: PDE2 fluorescence polarization (IMAP FP) inhibition assay, rhesus enzyme; assay type: biochemical, rhesus macaque
In short: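 Rhesus PDE2A3 came from lysate of transiently transfected AD293 cells, diluted to give 20% substrate conversion. Substrate was 50 nM FAM-cAMP with 1 uM cGMP activator in Tris pH 7.2/MgCl2 buffer, run 60 min at room temperature over 10-point 3-fold dilutions in 1% DMSO. Read-out was IMAP fluorescence polarization (mP) after ≥1 h binding.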

human PDE2A1 = human PDE2A1 (Homo sapiens (Human), UniProt O00408); assay: IMAP FP PDE selectivity panel, human PDE2A1; assay type: biochemical
In short: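 GST-tagged human PDE2A1 expressed in insect cells, run at room temperature for 60 min with 50 nM FAM-cAMP containing 1000 nM cGMP, pH 7.2 Tris/MgCl2 buffer. IMAP fluorescence polarization read after binding step.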

[2] = Rhesus PDE2, Lab A, read-out: Rhesus PDE2 Ki (nM) - Lab A
[3] = Human PDE2, Lab A, read-out: Human PDE2 Ki (nM) - Lab A
[4] = Rhesus PDE2, Lab B, read-out: Rhesus PDE2 Ki (nM) - Lab B
[5] = Human PDE2, Lab B, read-out: Human PDE2 Ki (nM) - Lab B

Chain of human PDE2A1 (O00408 other isoform, or with tags, fused parts or gaps): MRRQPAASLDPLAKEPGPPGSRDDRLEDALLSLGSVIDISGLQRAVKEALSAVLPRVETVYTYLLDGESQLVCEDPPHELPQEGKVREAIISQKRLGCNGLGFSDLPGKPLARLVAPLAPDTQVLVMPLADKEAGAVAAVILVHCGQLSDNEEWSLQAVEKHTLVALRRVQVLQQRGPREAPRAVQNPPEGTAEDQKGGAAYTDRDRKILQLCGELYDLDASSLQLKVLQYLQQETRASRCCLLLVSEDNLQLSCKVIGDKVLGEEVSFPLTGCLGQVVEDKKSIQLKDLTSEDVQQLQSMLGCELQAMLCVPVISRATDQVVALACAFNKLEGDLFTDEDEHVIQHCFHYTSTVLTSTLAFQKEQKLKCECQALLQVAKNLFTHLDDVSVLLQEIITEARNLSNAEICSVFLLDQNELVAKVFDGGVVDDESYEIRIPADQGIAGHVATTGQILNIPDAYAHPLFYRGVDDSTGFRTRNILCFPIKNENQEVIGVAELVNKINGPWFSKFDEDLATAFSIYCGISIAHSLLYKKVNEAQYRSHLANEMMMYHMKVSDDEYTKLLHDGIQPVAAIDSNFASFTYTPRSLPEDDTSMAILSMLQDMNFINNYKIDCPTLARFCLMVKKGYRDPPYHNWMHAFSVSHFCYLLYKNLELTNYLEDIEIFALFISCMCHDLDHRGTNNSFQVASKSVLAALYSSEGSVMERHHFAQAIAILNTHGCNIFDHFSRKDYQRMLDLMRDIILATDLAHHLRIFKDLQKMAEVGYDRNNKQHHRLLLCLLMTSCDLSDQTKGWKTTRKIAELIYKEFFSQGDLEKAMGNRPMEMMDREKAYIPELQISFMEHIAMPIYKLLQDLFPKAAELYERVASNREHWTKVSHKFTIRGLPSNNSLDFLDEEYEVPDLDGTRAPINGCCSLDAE
Chain of Rhesus PDE2A3 (B3VTJ2 1-941): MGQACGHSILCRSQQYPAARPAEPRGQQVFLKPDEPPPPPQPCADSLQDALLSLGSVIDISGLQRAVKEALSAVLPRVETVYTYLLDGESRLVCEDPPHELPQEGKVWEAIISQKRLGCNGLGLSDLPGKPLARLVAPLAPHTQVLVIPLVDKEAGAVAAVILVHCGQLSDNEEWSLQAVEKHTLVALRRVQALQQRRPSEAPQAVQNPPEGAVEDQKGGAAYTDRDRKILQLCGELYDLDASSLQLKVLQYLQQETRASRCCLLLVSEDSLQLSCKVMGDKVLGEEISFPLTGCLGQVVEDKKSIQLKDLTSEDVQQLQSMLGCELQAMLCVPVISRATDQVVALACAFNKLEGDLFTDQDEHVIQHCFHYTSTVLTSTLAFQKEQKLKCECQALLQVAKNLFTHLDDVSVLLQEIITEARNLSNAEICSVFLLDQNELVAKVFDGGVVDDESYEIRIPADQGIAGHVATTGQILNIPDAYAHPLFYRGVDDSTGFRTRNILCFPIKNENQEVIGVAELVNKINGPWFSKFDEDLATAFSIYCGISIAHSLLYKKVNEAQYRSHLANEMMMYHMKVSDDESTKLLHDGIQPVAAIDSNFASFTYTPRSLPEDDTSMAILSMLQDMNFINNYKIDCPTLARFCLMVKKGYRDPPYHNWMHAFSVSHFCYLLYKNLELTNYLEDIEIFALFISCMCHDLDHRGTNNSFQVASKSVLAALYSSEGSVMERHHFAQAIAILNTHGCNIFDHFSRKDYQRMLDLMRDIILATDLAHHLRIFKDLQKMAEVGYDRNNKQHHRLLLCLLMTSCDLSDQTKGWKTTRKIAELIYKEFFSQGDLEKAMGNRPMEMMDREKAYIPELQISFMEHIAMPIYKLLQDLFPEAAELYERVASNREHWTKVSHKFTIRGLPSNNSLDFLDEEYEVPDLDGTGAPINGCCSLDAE

| SMILES | Ki (Rhesus PDE2A3; [2]) | Ki (human PDE2A1; [3]) | Ki (Rhesus PDE2A3; [4]) | Ki (human PDE2A1; [5]) | brain penetration [1] | potency at other PDE isoforms (other PDE isoforms) |
| --- | --- | --- | --- | --- | --- | --- |
| COc1ccc(Cc2nn3c([C@@H](CCCc4ccccc4)[C@@H](C)O)nc(C)c3c(=O)[nH]2)cc1OC [BAY 60-7550] | – | – | – | – | limited brain penetration | significant potency at other PDE isoforms |
| Cc1nc(C(=O)NC(C#N)c2ccc(C(F)(F)F)cc2)cc(=O)[nH]1 (stereo not shown) [Example 33, N-{cyano[4-(trifluoromethyl)phenyl]methyl}-2-methyl-6-oxo-1,6-dihydropyrimidine-4-carboxamide] | 802 nM | 656 nM | – | – | – | – |
| C[C@@H](NC(=O)c1cc(=O)[nH]c(-c2ccccc2)n1)c1ccc(N(C)C)cc1 [Example 374, N-{(1R)-1-[4-(dimethylamino)phenyl]ethyl}-6-oxo-2-phenyl-1,6-dihydropyrimidine-4-carboxamide] | 24 nM | – | 36 nM | 33 nM | – | – |
| CC(NC(=O)c1cc(=O)[nH]c(-c2ccccc2)n1)c1ccc(C2CC2)cc1 (stereo not shown) [Example 164, N-[1-(4-cyclopropylphenyl)ethyl]-6-oxo-2-phenyl-1,6-dihydropyrimidine-4-carboxamide] | 9 nM | 9.4 nM | – | – | – | – |
| Cc1nc(C(=O)N[C@@H](c2ccc(C3CC3)c(F)c2)C(C)(C)C)cc(=O)[nH]1 [Example 428, N-[(1R)-1-(4-cyclopropyl-3-fluorophenyl)-2,2-dimethylpropyl]-2-methyl-6-oxo-1,6-dihydropyrimidine-4-carboxamide] | – | – | 1.9 nM | 1.8 nM | – | – |
| C[C@@H](NC(=O)c1cc(=O)[nH]c(C2CC2)n1)c1ccc(C(F)(F)F)c(F)c1 [Example 234, 2-cyclopropyl-N-{(1R)-1-[3-fluoro-4-(trifluoromethyl)phenyl]ethyl}-6-oxo-1,6-dihydropyrimidine-4-carboxamide] | 20 nM | 18 nM | – | – | – | – |
| Cc1nc(C(=O)N[C@H](C)c2ccc(-c3cccc(F)c3)cc2)cc(=O)[nH]1 [Example 323, N-[(1R)-1-(3′-fluorobiphenyl-4-yl)ethyl]-2-methyl-6-oxo-1,6-dihydropyrimidine-4-carboxamide] | 66 nM | 50 nM | – | – | – | – |
| CC(C)(C)[C@@H](NC(=O)c1cc(=O)[nH]c(C2CC2)n1)c1ccc(SC(F)(F)F)cc1 [Example 439, 2-cyclopropyl-N-[(1R)-2,2-dimethyl-1-{4-[(trifluoromethyl)sulfanyl]phenyl}pro-pyl]-6-oxo-1,6-dihydropyrimidine-4-carboxamide] | – | – | 1 nM | 1.3 nM | – | – |

Now from value to molecule, other results behind:

| Ki (Rhesus PDE2A3; [2]) | Ki (human PDE2A1; [3]) | Ki (Rhesus PDE2A3; [4]) | Ki (human PDE2A1; [5]) | SMILES | brain penetration [1] | potency at other PDE isoforms (other PDE isoforms) |
| --- | --- | --- | --- | --- | --- | --- |
| 35 nM | 9.6 nM | – | – | O=C(N[C@@H](c1ccc(OC(F)(F)F)c(F)c1)C1CC1)c1cc(=O)[nH]c(-c2ncccn2)n1 [Example 93, N-{(R)-cyclopropyl[3-fluoro-4-(trifluoromethoxy)phenyl]methyl}-6-oxo-1,6-dihydro-2,2′-bipyrimidine-4-carboxamide] | – | – |
| 2.9 nM | 2.3 nM | – | – | O=C(NC1(c2ccc(C(F)(F)F)c(F)c2)CC1)c1cc(=O)[nH]c(-c2ccccc2)n1 [Example 145, N-{1-[3-fluoro-4-(trifluoromethyl)phenyl]cyclopropyl}-6-oxo-2-phenyl-1,6-dihydropyrimidine-4-carboxamide] | – | – |
| – | – | 115 nM | 75 nM | COc1ccc(C(C)(C)c2nc(C(=O)N[C@@H](c3ccc(C(F)(F)F)cc3)C3CC3)cc(=O)[nH]2)cc1 [Example 502, N-{(R)-cyclopropyl[4-(trifluoromethyl)phenyl]methyl}-2-[1-(4-methoxyphenyl)-1-methylethyl]-6-oxo-1,6-dihydropyrimidine-4-carboxamide] | – | – |
| – | – | 1.4 nM | 1.5 nM | COc1ccc(Cc2nc(C(=O)N[C@@H](c3ccc(C(F)(F)F)cc3)C(C)C)cc(=O)[nH]2)cc1 [Example 474, 2-(4-methoxybenzyl)-N-{(1R)-2-methyl-1-[4-(trifluoromethyl)phenyl]propyl}-6-oxo-1,6-dihydropyrimidine-4-carboxamide] | – | – |
| 6.4 nM | – | 9.3 nM | 9.8 nM | CC[C@@H](NC(=O)c1cc(=O)[nH]c(-c2ncccn2)n1)c1ccc(OC(F)(F)F)c(F)c1 [Example 89, N-{(1R)-1-[3-fluoro-4-(trifluoromethoxy)phenyl]propyl}-6-oxo-1,6-dihydro-2,2′-bipyrimidine-4-carboxamide] | – | – |
| 5.8 nM | 2.6 nM | – | – | CC[C@@H](NC(=O)c1cc(=O)[nH]c(C2CC2)n1)c1ccc(OC(F)(F)F)c(F)c1 [Example 207] | – | – |
| 942 nM | 540 nM | – | – | O=C(NC1(c2ccc(OC(F)(F)F)cc2)CCC1)c1cc(=O)[nH]c(-c2ncccn2)n1 [Example 290, 6-oxo-N-(1-(4-(trifluoromethoxy)phenyl)cyclobutyl)-1,6-dihydro-[2,2′-bipyrimidine]-4-carboxamide] | – | – |
| 76 nM | 69 nM | – | – | C[C@@H](NC(=O)c1cc(=O)[nH]c(-c2cccc(F)c2)n1)c1ccc(C(F)(F)F)cc1 [Example 138, 2-(3-fluorophenyl)-6-oxo-N-{(1R)-1-[4-(trifluoromethyl)phenyl]ethyl}-1,6-dihydropyrimidine-4-carboxamide] | – | – |
| 7.4 nM | 3.1 nM | – | – | O=C(N[C@@H](c1ccc(SC(F)(F)F)cc1)C1CC1)c1cc(=O)[nH]c(-c2ncccn2)n1 [Example 95, N-[(R)-cyclopropyl{4-[(trifluoromethyl)sulfanyl]phenyl}methyl]-6-oxo-1,6-dihydro-2,2′-bipyrimidine-4-carboxamide] | – | – |
| 6.6 nM | 5.6 nM | – | – | O=C(NC1(c2ccc(OC(F)(F)F)cc2)CC1)c1cc(=O)[nH]c(-c2ccccc2)n1 [Example 277, 6-oxo-2-phenyl-N-{1-[4-(trifluoromethoxy)phenyl]cyclopropyl}-1,6-dihydropyrimidine-4-carboxamide] | – | – |
| 52 nM | 35 nM | – | – | Cc1nc(C(=O)N[C@H](C)c2ccc(CC(F)(F)F)cc2)cc(=O)[nH]1 [Example 45, 2-methyl-6-oxo-N-{(1R)-1-[4-(2,2,2-trifluoroethyl)phenyl]ethyl}-1,6-dihydropyrimidine-4-carboxamide] | – | – |
